Assay results taken from US9597407B2, “Targeted antimicrobial moieties” (C3 Jian, Inc., priority 2009, dated 2017).
Entries after “also recorded” stand apart in the source; their conditions may differ.

Tests used:
bacteria = test: Binding of targeting peptides to microorganisms (Table 3); settings: preferably 1x PBS
microorganisms = test: Morphology, biofilm and growth disruption by peptides (Table 5); type: cell-based; parameters: key: A: Peptide aggregates; B: Less hyphal formation; Clumps; Diffuse clumps and small polyps; F: Diffuse growth; H: Thin; I: Growth inhibition; Microcolony formation; Rippled; Small polyps; Thick; W: Halo formation on top, microlonies on bottom
From the text: In certain embodiments peptides that induce alterations in phenotype or other biological activities can also be used as antimicrobial effector moieties.

[1] = peptide binding in aqueous buffers that varied depending on peptide solubility
[2] = microorganism the targeting peptide binds, binding in aqueous buffers that varied with peptide solubility
[3] = microorganism bound by the targeting peptide, binding in aqueous buffers chosen by peptide solubility

PF-789 (PRGAQSGHG; Peptide with targeting and/or antimicrobial activity)
Target(s) (microorganism bound by the targeting peptide) (bacteria; [1]): Mycobacteria spp.

1T-289 (EPSADIYLSAKDTKT; Peptide with targeting and/or antimicrobial activity) [Peptide 1T-289]
Target(s) (bacteria; [2]): F. nucleatum; also recorded: P. gingivalis; also recorded: S. gordonii; also recorded: S. mitis; also recorded: S. mutans; also recorded: S. oralis; also recorded: S. sanguinis

PF-187 (EIQKIAKGVSGQVYGPSRQITISKKR; Peptide with targeting and/or antimicrobial activity)
Target(s) (bacteria; [3]): S. epidermidis and M. luteus and E. coli and MRSA

1T-264 (LEGKFYMAEDFDKTPECFKDYV; Peptide with targeting and/or antimicrobial activity) [Peptide 1T-264]
Target(s) (bacteria; [2]): S. sanguinis

PF-794 (NLYFENQGN; Peptide with targeting and/or antimicrobial activity)
Target(s) (microorganism bound by the targeting peptide) (bacteria; [1]): S. mutans

PF-C285 (FTIIELKKQKIKHGENNKKTAHPLNEPFCARA; Peptide with targeting and/or antimicrobial activity)
Target(s) (microorganism bound by the targeting peptide) (bacteria; [1]): A. naeslundii; also recorded: F. nucleatum; also recorded: P. gingivalis; also recorded: S. mutans; also recorded: T. denticola

PF-165 (GPVSVVASLRRGTTVQRHSQNNHNKGKP; Peptide with targeting and/or antimicrobial activity)
Target(s) (bacteria; [3]): MRSA and C. jejuni

PF-202 (ALNRASLRLALGE; Peptide with targeting and/or antimicrobial activity)
Target(s) (bacteria; [3]): S. epidermidis and M. luteus and E. coli and MRSA and E. faecalis and C. jeikeium and C. jejuni

PF-150 (EIQAKGTG; Peptide with targeting and/or antimicrobial activity)
Target(s) (bacteria; [3]): S. epidermidis and MRSA

PF-047 (NQEPSLQQDKEQKDNKG; Peptide with targeting and/or antimicrobial activity)
Target(s) (bacteria; [2]): S. mutans

PF-772 (TKESSS; Peptide with targeting and/or antimicrobial activity)
Target(s) (microorganism bound by the targeting peptide) (bacteria; [1]): S. epidermidis and C. albicans and MRSA and S. pneumoniae and C. jeikeium

PF-238 (RNAVVVTEATFPKYEEEITNYLNRRFGEDWSLKLEKCSVA; Peptide with targeting and/or antimicrobial activity)
Target(s) (bacteria; [3]): S. mutans and S. epidermidis and E. coli and P. aeruginosa and C. albicans and MRSA and S. pneumoniae and E. faecalis

PF-733 (VISRQMGSEAVLELFIIM; Peptide with targeting and/or antimicrobial activity)
Target(s) (microorganism bound by the targeting peptide) (bacteria; [1]): S. mutans; also recorded: E. coli

PF-155 (GRYGDDSKERQGRAQ; Peptide with targeting and/or antimicrobial activity)
Target(s) (bacteria; [3]): C. jeikeium

PF-185 (RPAQARQGPGGLIADRHIRA; Peptide with targeting and/or antimicrobial activity)
Target(s) (bacteria; [3]): E. coli; also recorded: P. aeruginosa

1T-33 (VRTLTILVIFIFNYLKSISYKLKQPFENNLAQSMISI; Peptide with targeting and/or antimicrobial activity) [Peptide 1T-33]
Target(s) (microorganism bound by the targeting peptide) (bacteria; peptide binding in aqueous buffers varied by peptide solubility): S. aureus; also recorded: S. epidermidis; also recorded: C. jeikeium; also recorded: C. xerosis; also recorded: C. striatum; also recorded: P. aeruginosa

PF-C003 (FCSVDHDVITIAADHVKQGAEA; Peptide with targeting and/or antimicrobial activity)
Target(s) (microorganism bound by the targeting peptide) (bacteria; [1]): A. naeslundii; also recorded: P. gingivalis; also recorded: S. mutans

TT-307 (NGDKKAKEELDKWDEVIKELNIQF; Peptide with targeting and/or antimicrobial activity)
Target(s) (bacteria; [2]): F. nucleatum

PF-797 (WYYFDNNGYM; Peptide with targeting and/or antimicrobial activity)
Target(s) (microorganism bound by the targeting peptide) (bacteria; [1]): S. mutans

1T-266 (RAGTWLVVDEIR; Peptide with targeting and/or antimicrobial activity) [Peptide 1T-266]
Target(s) (bacteria; [2]): S. sanguinis

PF-225 (MNCASPEFKKLMELYK; Peptide with targeting and/or antimicrobial activity)
Target(s) (bacteria; [3]): S. epidermidis

1T-252 (MKKNLKRFYALVLGFIIGCLFVSILIFIGY; Peptide with targeting and/or antimicrobial activity) [Peptide 1T-252]
Target(s) (bacteria; [2]): F. nucleatum; also recorded: S. sanguinis

1T-301 (SKLPRVLDASLKL; Peptide with targeting and/or antimicrobial activity) [Peptide 1T-301]
Target(s) (bacteria; [2]): F. nucleatum; also recorded: S. gordonii; also recorded: S. sanguinis

PF-536 (MEPIPHIMIIANQIGIIIEKA; Peptide with targeting and/or antimicrobial activity)
Organism, effect (morphology, biofilm and growth disruption) (microorganisms; E. coli): E. coli (R) | Organism, effect (morphology, biofilm and growth disruption) (microorganisms; E. faecalis): E. faecalis (C) | Organism, effect (morphology, biofilm and growth disruption) (microorganisms; MRSA): MRSA (C) | Organism, effect (morphology, biofilm and growth disruption) (microorganisms; P. aeruginosa): P. aeruginosa (H) | Organism, effect (morphology, biofilm and growth disruption) (microorganisms; S. epidermidis): S. epidermidis (C) | Organism, effect (morphology, biofilm and growth disruption) (microorganisms; S. pneumoniae): S. pneumoniae (M)

PF-431 (VAYAAICWW; Peptide with targeting and/or antimicrobial activity)
Organism, effect (morphology, biofilm and growth disruption) (microorganisms; C. jejuni): C. jejuni (R) | Organism, effect (morphology, biofilm and growth disruption) (microorganisms; E. faecalis): E. faecalis (R) | Organism, effect (morphology, biofilm and growth disruption) (microorganisms; MRSA): MRSA (C) | Organism, effect (morphology, biofilm and growth disruption) (microorganisms; S. epidermidis): S. epidermidis (M) | Organism, effect (morphology, biofilm and growth disruption) (microorganisms; S. pneumoniae): S. pneumoniae (R)

EILNNNQVIKELTMKYKTQFESNLGGWTARARR [PF-580]
Organism, effect (morphology, biofilm and growth disruption) (microorganisms; M. luteus): M. luteus (C) | Organism, effect (morphology, biofilm and growth disruption) (microorganisms; MRSA): MRSA (M) | Organism, effect (morphology, biofilm and growth disruption) (microorganisms; S. epidermidis): S. epidermidis (M) | Organism, effect (morphology, biofilm and growth disruption) (microorganisms; S. pneumoniae): S. pneumoniae (C)

KFSDQIDKGQDALKDKLGDL [PF-525]
Organism, effect (morphology, biofilm and growth disruption) (microorganisms; S. pneumoniae): S. pneumoniae (H)

PF-004 (chain 1 ARLSKAIIIAVIVVYHLDVRGLF; chain 2 ARLSKAIIIAVIVVYHLDVRGLF; Peptide with targeting and/or antimicrobial activity)
Organism, effect (microorganisms; C. jeikeium): C. jeikeium (A) | Organism, effect (microorganisms; M. luteus): M. luteus (A) | Organism, effect (microorganisms; MRSA): MRSA (R) | Organism, effect (microorganisms; S. epidermidis): S. epidermidis (A)

MRFGSLALVAYDSAIKHSWPRPSSVRRLRM [PF-672]
Organism, effect (morphology, biofilm and growth disruption) (microorganisms; B. subtilis): B. subtilis (I) | Organism, effect (morphology, biofilm and growth disruption) (microorganisms; C. albicans): C. albicans (I) | Organism, effect (morphology, biofilm and growth disruption) (microorganisms; C. jeikeium): C. jeikeium (R) | Organism, effect (morphology, biofilm and growth disruption) (microorganisms; E. faecalis): E. faecalis (I) | Organism, effect (morphology, biofilm and growth disruption) (microorganisms; MRSA): MRSA (I) | Organism, effect (morphology, biofilm and growth disruption) (microorganisms; S. epidermidis): S. epidermidis (I) | Organism, effect (morphology, biofilm and growth disruption) (microorganisms; S. pneumoniae): S. pneumoniae (I)

PF-157 (HTAVVWLAGVSGCVALSHCEPA; Peptide with targeting and/or antimicrobial activity)
Organism, effect (microorganisms; S. epidermidis): S. epidermidis (M)

PF-203 (SWKCHHLAI; Peptide with targeting and/or antimicrobial activity)
Organism, effect (microorganisms; C. jeikeium): C. jeikeium (R) | Organism, effect (microorganisms; S. epidermidis): S. epidermidis (A)

PF-634 (chain 1 MPKARPVNHNKKKSKITIKSNFTLFYMFNP; chain 2 MPKARPVNHNKKKSKITIKSNFTLFYMFNP; Peptide with targeting and/or antimicrobial activity)
Organism, effect (morphology, biofilm and growth disruption) (microorganisms; E. coli): E. coli (C) | Organism, effect (morphology, biofilm and growth disruption) (microorganisms; M. luteus): M. luteus (C) | Organism, effect (morphology, biofilm and growth disruption) (microorganisms; MRSA): MRSA (D) | Organism, effect (morphology, biofilm and growth disruption) (microorganisms; P. mirabilis): P. mirabilis (C) | Organism, effect (morphology, biofilm and growth disruption) (microorganisms; S. epidermidis): S. epidermidis (D) | Organism, effect (morphology, biofilm and growth disruption) (microorganisms; S. mutans): S. mutans (D) | Organism, effect (morphology, biofilm and growth disruption) (microorganisms; S. pneumoniae): S. pneumoniae (D)

PF-612 (GTTLKYGLERQLKIDIHPEITIINLNGGADEFAKL; Peptide with targeting and/or antimicrobial activity)
Organism, effect (morphology, biofilm and growth disruption) (microorganisms; E. coli): E. coli (C) | Organism, effect (morphology, biofilm and growth disruption) (microorganisms; M. luteus): M. luteus (A) | Organism, effect (morphology, biofilm and growth disruption) (microorganisms; MRSA): MRSA (C) | Organism, effect (morphology, biofilm and growth disruption) (microorganisms; P. mirabilis): P. mirabilis (C) | Organism, effect (morphology, biofilm and growth disruption) (microorganisms; S. epidermidis): S. epidermidis (C) | Organism, effect (morphology, biofilm and growth disruption) (microorganisms; S. mutans): S. mutans (F) | Organism, effect (morphology, biofilm and growth disruption) (microorganisms; S. pneumoniae): S. pneumoniae (C)

PF-605 (HYRWNTQWWKY; Peptide with targeting and/or antimicrobial activity)
Organism, effect (morphology, biofilm and growth disruption) (microorganisms; C. albicans): C. albicans (B) | Organism, effect (morphology, biofilm and growth disruption) (microorganisms; C. jejuni): C. jejuni (R) | Organism, effect (morphology, biofilm and growth disruption) (microorganisms; E. coli): E. coli (C) | Organism, effect (morphology, biofilm and growth disruption) (microorganisms; E. faecalis): E. faecalis (R) | Organism, effect (morphology, biofilm and growth disruption) (microorganisms; MRSA): MRSA (C) | Organism, effect (morphology, biofilm and growth disruption) (microorganisms; P. aeruginosa): P. aeruginosa (A) | Organism, effect (morphology, biofilm and growth disruption) (microorganisms; S. epidermidis): S. epidermidis (R) | Organism, effect (morphology, biofilm and growth disruption) (microorganisms; S. pneumoniae): S. pneumoniae (D)

PF-274 (SIQEAEKIIKNDPFYIHDVADYDFMWFEPSKSLEEIKEFV; Peptide with targeting and/or antimicrobial activity)
Organism, effect (microorganisms; M. luteus): M. luteus (M)

MIHLTKQNTMEALHFIKQFYDMFFILNFNV [PF-040]
Organism, effect (microorganisms; B. subtilis): B. subtilis (D) | Organism, effect (microorganisms; C. jeikeium): C. jeikeium (D) | Organism, effect (microorganisms; C. jejuni): C. jejuni (D) | Organism, effect (microorganisms; E. coli): E. coli (C) | Organism, effect (microorganisms; M. luteus): M. luteus (D) | Organism, effect (microorganisms; MRSA): MRSA (D) | Organism, effect (microorganisms; P. mirabilis): P. mirabilis (C) | Organism, effect (microorganisms; S. epidermidis): S. epidermidis (D) | Organism, effect (microorganisms; S. mutans): S. mutans (F) | Organism, effect (microorganisms; S. pneumoniae): S. pneumoniae (D)
